The conditions of assay [1]: cited from earlier work.
The subject of assay [2] is astrocyte-rich primary cortical neurons. Description: DTDP (dithiodipyridine) toxicity in astrocyte-rich primary cortical neurons. It counts as cell-based. Conditions: PSP-2 3 μM (FIG. 8). As for the experimental part: FIG. 8 is a bar plot showing that DTDP (dithiodipyridine) toxicity in astrocyte-rich primary cortical neurons was reversed with PSP-2 (3 μM). DTDP is an agent oxidizing metallothioneins. Oxidation of metallothioneins leads to liberation of metals (zinc and copper) and cell death.

A further assay has as its system retinal ganglion cells. Description: Retinal ganglion cell survival after optic nerve crush (βIII-tubulin positive cells). Type of assay: in vivo, mice. Conditions: two weeks post ONC. As for the experimental part: (§1) Experiments were performed in 8 to 9-week-old 129S1/SvImJ male mice (Jackson Laboratory, Bar Harbor, Me.). Mice were anesthetized prior to ONC surgery with ketamine and xylazine. The ONC surgery and euthanization of mice were performed as previously described in U.S. Publication No. 2014/079741, the contents of which are hereby incorporated by reference in their entirety. Briefly, a conjunctival incision was made over the dorsal aspect of one eye, which was then gently rotated downward in the orbit. The orbital muscles were slightly separated to expose the optic nerve at its exit from the globe, which was then crushed for 5 seconds with jewelers' forceps (Dumont number 5) near the back of the eye (within 0.5 mm). ONC was performed unilaterally for all autometallography experiments and bilaterally for all regeneration experiments. […]
(§2) Axon growth was determined by counting GAP-43-positive axons extending 0.5 and 1 mm from the crush site. The cross-sectional width of the nerve was measured at the 0.5 and 1 mm points. The number of axons per millimeter of nerve width was calculated and then averaged for the number of sections analyzed. The estimated number of axons per nerve was then calculated. Retinal ganglion cell survival was measured as the number of βIII-tubulin positive cells per mm^2.

For assay [3], the system named is GAP-43-positive axons in the optic nerve. Description: Axon regeneration after optic nerve crush (GAP-43-positive axons). Type of assay: in vivo, mice. As for the experimental part:
To determine if copper chelation promotes axon regeneration after nerve injury, mice were administered treatments as described in Example 1 after bilateral ONC. […] An antibody against GAP-43 was used to detect growing axons (FIG. 4A-4D).
as §1, with “experiments. Treatments were administered unilaterally for all autometallography experiments and bilaterally for all regeneration experiments. Post-ONC treatments were administered by intraocular injection immediately after ONC surgery. Mice were sacrificed with an overdose of anesthesia. Tissue samples were snap-frozen for all autometallography experiments. Mice were perfused with saline followed by 4% paraformaldehyde (PFA) and the tissue samples were post-fixed in PFA for regeneration experiments.” for “experiments.”
as §2

Assay [4] concerns metals in the retina, i.e., copper and zinc. Description: Autometallography (AMG) of metals in the retina after optic nerve crush (ONC). Type of assay: in vivo, mice. Conditions: day 1 post ONC; intraocular injection immediately after ONC; TPEN 100 μM, PSP-2 50 μM, PSP-2+Cu 50 μM. The method, then:
Metals in the retina, i.e., copper and zinc, were visualized using autometallography. […] To determine whether copper chelators had any effect on this increase, the selective copper chelator PSP-2 was used. Mice were administered 3 μL of DMSO 1% in PBS (control), 100 μM TPEN (10 mM TPEN stock in DMSO diluted in PBS (DMSO 1%)), 50 μM PSP-2 (5 mM PSP-2 stock in DMSO diluted in PBS (DMSO 1%)), or 50 μM PSP-2+Cu (10 mM PSP-2+Cu in de-O2 water diluted in PBS (DMSO 1%) immediately after unilateral optic nerve crush (ONC). In these studies, the normal, intact retina was used as a reference.
as §1, with “mm).” for “mm). ONC was performed unilaterally for all autometallography experiments and bilaterally for all regeneration experiments.”

The test system of the next assay is HT22 cell culture. Put plainly: Glutamate toxicity in HT22 cell culture. The note with it: PSP-2 50 μM (FIG. 9). Type of assay: cell-based. The source says: Glutamate toxicity is a model of ferroptotic cell death. Glutamate toxicity and ferroptosis are likely involved in retinal ganglion cell (RGC) death post-optic nerve crush (ONC).

The text below walks through data of patent US11712444B2, “Compositions and methods of treating neuronal injury” (CHILDREN'S MEDICAL CENTER CORPORATION, priority 2019, dated 2023).

Entries after “also recorded” stand apart in the source; their conditions may differ.

Consider `CP(C)(=S)CP(CP(C)(C)=S)c1ccccc1P(CP(C)(C)=S)CP(C)(C)=S` [PhenPS], for which the “dissociation constant, Cu(I)” value in assay [1] is listed as “about 0.6 zM”.
Take `CP(C)(=S)CP(CCP(CP(C)(C)=S)CP(C)(C)=S)CP(C)(C)=S` [PSP-2]: in assay [2], the DTDP-induced cell death result is listed as “reversed”. Further, in the assay with retinal ganglion cells, the “survival of retinal ganglion cells” value was “did not significantly affect survival of retinal ganglion cells; also recorded: did not improve retinal ganglion cell (RGC) survival”. In addition, the “axon regeneration, dose dependence” value in assay [3] (2 weeks post ONC, FIG. 7A) is recorded as “improved axon regeneration in a dose-dependent manner”. For the same compound, the “axon regeneration at 0.5 mm distance from the site of ONC” value in assay [3] (two weeks post ONC, 0.5 mm, PSP-2 50 μM intraocular) is recorded as “improved axon regeneration”. In addition, in assay [3] (two weeks post ONC, 1.0 mm, PSP-2 50 μM intraocular), the “axon regeneration at 1.0 mm distance from the site of ONC” value is “improved axon regeneration”. In addition, the “autometallography (AMG) signal in the retina” value in assay [4] is listed as “reduced the autometallography signal; also recorded: reduced metal autometallography (AMG) signal”. Further, in the assay on HT22 cell culture, the glutamate-induced cell death result was “partially alleviated”.
For the compound `CP(C)(=S)CP(CP(C)(C)=S)c1cccc2cccc(P(CP(C)(C)=S)CP(C)(C)=S)c12` [naphPS], the “dissociation constant, Cu(I)” value in assay [1] is 0.8 zM.
In the case of `c1ccc(CN(CCN(Cc2ccccn2)Cc2ccccn2)Cc2ccccn2)nc1` [TPEN, N, N, N′, N′-tetrakis(2-pyridylmethyl) ethylenediamine, reference compound], the “autometallography (AMG) signal in the retina” value in assay [4] was “reduced the autometallography signal”.
